# Reference: US6281169A, “Aqueous suspensions of low solubility and low stability water additives” (BioLab Services, Inc., priority 1999, dated 2001)
# Read-outs that look alike come from different tables or passages of the source.
# Experiments:
# E. coli (ATCC #11229) = assay: Biocidal efficacy, AOAC Official Method 965.13, gram-negative bacteria; assay type: cell-based
# Experimental: (§1) The biocidal efficacy of dissolved BCDMH was compared to sodium hypochlorite using AOAC Official Method 965.13 (1995 Edition)--Disinfectant (Water) for Swimming Pools against the gram-negative bacteria E. coli (ATCC #11229) and the gram-positive bacteria Strep. faecalis (ATCC #6569). The desired nominal biocide dosage (0, 0.1, 0.3, 0.6 or 0.9 mg/l total halogen expressed as chlorine) was established by dilution from freshly prepared (filtered) standardized stock solutions of either BCDMH Powder or NaOCl into phosphate buffered water (approximate pH of 7.5 as described in the method). An inoculum was standardized to yield 2×10^8 organisms per ml. One ml of the standardized inoculum was mixed into 199 ml of phosphate buffered water containing the desired dosage of biocide. One-ml aliquots were removed at specific times (30, 60, 120 and 180 seconds after inoculum addition) and added, with mixing, into separate tubes containing 9 ml of thiosulfate solution to neutralize the oxidizing halogen. Five 1 ml aliquots of from each neutralization tube were then added and mixed into five separate tubes each containing 9 ml of subculture broth. After 48 hours of incubation, these were examined to determine growth or no growth in the subculture medium. […]
# [1] = cited from earlier work; for hydrolytic stability (in words): background
# [2] = tested on: Strep. faecalis (ATCC #6569); assay: Biocidal efficacy, AOAC Official Method 965.13, gram-positive bacteria; assay type: cell-based
# Experimental: as §1
# bacteria = assay: Biocidal efficacy comparison, both bacteria (in words); assay type: cell-based, E. coli; Strep. faecalis; conditions: compared with NaOCl, predissolved BCDMH or other Examples
# Experimental: The biocidal efficacy of dissolved BCDMH was compared to sodium hypochlorite using AOAC Official Method 965.13 (1995 Edition)--Disinfectant (Water) for Swimming Pools against the gram-negative bacteria E. coli (ATCC #11229) and the gram-positive bacteria Strep. faecalis (ATCC #6569). The desired nominal biocide dosage (0, 0.1, 0.3, 0.6 or 0.9 mg/l total halogen expressed as chlorine) was established by dilution from freshly prepared (filtered) standardized stock solutions of either BCDMH Powder or NaOCl into phosphate buffered water (approximate pH of 7.5 as described in the method). An inoculum was standardized to yield 2×10^8 organisms per ml. One ml of the standardized inoculum was mixed into 199 ml of phosphate buffered water containing the desired dosage of biocide. One-ml aliquots were removed at specific times (30, 60, 120 and 180 seconds after inoculum addition) and added, with mixing, into separate tubes containing 9 ml of thiosulfate solution to neutralize the oxidizing halogen. Five 1 ml aliquots of from each neutralization tube were then added and mixed into five separate tubes each containing 9 ml of subculture broth. After 48 hours of incubation, these were examined to determine growth or no growth in the subculture medium.
# The efficacy of this preparation was tested as described in Example 1 except that no stock solution of the preparation was made. […]
# [3] = background; cited from earlier work
# [4] = cited from earlier work
# [5] = 0.1 ppm total halogen as Cl2, 30 sec
# [6] = 0.1 ppm total halogen as Cl2, 60 sec
# [7] = 0.1 ppm total halogen as Cl2, 120 sec
# [8] = 0.1 ppm total halogen as Cl2, 180 sec
# [9] = 0.3 ppm total halogen as Cl2, 30 sec
# [10] = 0.3 ppm total halogen as Cl2, 60 sec
# [11] = 0.3 ppm total halogen as Cl2, 120 sec
# [12] = 0.3 ppm total halogen as Cl2, 180 sec
# [13] = 0.6 ppm total halogen as Cl2, 30 sec
# [14] = 0.6 ppm total halogen as Cl2, 60 sec
# [15] = 0.6 ppm total halogen as Cl2, 120 sec
# [16] = 0.6 ppm total halogen as Cl2, 180 sec
# [17] = 0.9 ppm total halogen as Cl2, 30 sec
# [18] = 0.9 ppm total halogen as Cl2, 60 sec
# [19] = 0.9 ppm total halogen as Cl2, 120 sec
# [20] = 0.9 ppm total halogen as Cl2, 180 sec
Structure (SMILES),Number of Tubes Exhibiting Growth (E. coli (ATCC #11229); [5]),Number of Tubes Exhibiting Growth (E. coli (ATCC #11229); [6]),Number of Tubes Exhibiting Growth (E. coli (ATCC #11229); [7]),Number of Tubes Exhibiting Growth (E. coli (ATCC #11229); [8]),Number of Tubes Exhibiting Growth (E. coli (ATCC #11229); [9]),Number of Tubes Exhibiting Growth (E. coli (ATCC #11229); [10]),Number of Tubes Exhibiting Growth (E. coli (ATCC #11229); [11]),Number of Tubes Exhibiting Growth (E. coli (ATCC #11229); [12]),Number of Tubes Exhibiting Growth (E. coli (ATCC #11229); [13]),Number of Tubes Exhibiting Growth (E. coli (ATCC #11229); [14]),Number of Tubes Exhibiting Growth (E. coli (ATCC #11229); [15]),Number of Tubes Exhibiting Growth (E. coli (ATCC #11229); [16]),hydrolytic stability (in words) [1],"Number of Tubes Exhibiting Growth [2, 5]","Number of Tubes Exhibiting Growth [2, 6]","Number of Tubes Exhibiting Growth [2, 7]","Number of Tubes Exhibiting Growth [2, 8]","Number of Tubes Exhibiting Growth [2, 9]","Number of Tubes Exhibiting Growth [2, 10]","Number of Tubes Exhibiting Growth [2, 11]",other results
"CC1(C)C(=O)N(Cl)C(=O)N1Br [BCDMH, bromochlorodimethylhydantoin]",5 Tubes (Out of 5),5 Tubes (Out of 5),5 Tubes (Out of 5),5 Tubes (Out of 5),5 Tubes (Out of 5),5 Tubes (Out of 5),5 Tubes (Out of 5),5 Tubes (Out of 5),0 Tubes (Out of 5),0 Tubes (Out of 5),0 Tubes (Out of 5),0 Tubes (Out of 5),not hydrolytically stable,5 Tubes (Out of 5),5 Tubes (Out of 5),5 Tubes (Out of 5),5 Tubes (Out of 5),5 Tubes (Out of 5),5 Tubes (Out of 5),4 Tubes (Out of 5),"Number of Tubes Exhibiting Growth (E. coli (ATCC #11229); [17]): 0 Tubes (Out of 5); Number of Tubes Exhibiting Growth (E. coli (ATCC #11229); [18]): 0 Tubes (Out of 5); Number of Tubes Exhibiting Growth (E. coli (ATCC #11229); [19]): 0 Tubes (Out of 5); Number of Tubes Exhibiting Growth (E. coli (ATCC #11229); [20]): 0 Tubes (Out of 5); Number of Tubes Exhibiting Growth [2, 12]: 1 Tubes (Out of 5); Number of Tubes Exhibiting Growth [2, 13]: 0 Tubes (Out of 5); Number of Tubes Exhibiting Growth [2, 14]: 0 Tubes (Out of 5); Number of Tubes Exhibiting Growth [2, 15]: 0 Tubes (Out of 5); Number of Tubes Exhibiting Growth [2, 16]: 0 Tubes (Out of 5); Number of Tubes Exhibiting Growth [2, 17]: 0 Tubes (Out of 5); Number of Tubes Exhibiting Growth [2, 18]: 0 Tubes (Out of 5); Number of Tubes Exhibiting Growth [2, 19]: 0 Tubes (Out of 5); Number of Tubes Exhibiting Growth [2, 20]: 0 Tubes (Out of 5); biocidal efficacy (in words) (bacteria): approximately the same; dissolving behaviour (in words) [3]: dissolves slowly; water solubility ([4]; 20° C.): approximately 1,500 mg/liter"
"O=[N+]([O-])C(Br)=Cc1ccco1 [BNEF, 2-(2-bromo-2-nitro)-ethenyl furan]",–,–,–,–,–,–,–,–,–,–,–,–,–,–,–,–,–,–,–,–,"decomposition half-life ([1]; pH 4, 50° C.): 2.33 h; decomposition half-life ([1]; pH 4, 60° C.): 1.77 h; decomposition half-life ([1]; pH 4, 70° C.): 0.817 h; decomposition half-life ([1]; pH 5, 25° C.): 71 h; decomposition half-life ([1]; pH 6, 25° C.): 37 h; decomposition half-life ([1]; pH 9, 25° C.): 6 h; solubility in water ([4]; 25° C.): 300 ppm"
"O=c1[nH]c(=O)[nH]c(=O)[nH]1 [CYA, S-triazine-2,4,6-trione]",–,–,–,–,–,–,–,–,–,–,–,–,–,–,–,–,–,–,–,–,dissolving behaviour (in words) [3]: fairly tough to dissolve; solubility in water ([4]; 20° C.): approximately 2700 ppm
"[Na+].[O-]Cl [NaOCl, sodium hypochlorite]",5 Tubes (Out of 5),5 Tubes (Out of 5),5 Tubes (Out of 5),5 Tubes (Out of 5),5 Tubes (Out of 5),5 Tubes (Out of 5),3 Tubes (Out of 5),1 Tubes (Out of 5),0 Tubes (Out of 5),0 Tubes (Out of 5),0 Tubes (Out of 5),0 Tubes (Out of 5),–,5 Tubes (Out of 5),5 Tubes (Out of 5),5 Tubes (Out of 5),5 Tubes (Out of 5),5 Tubes (Out of 5),5 Tubes (Out of 5),5 Tubes (Out of 5),"Number of Tubes Exhibiting Growth [2, 12]: 5 Tubes (Out of 5); Number of Tubes Exhibiting Growth [2, 13]: 0 Tubes (Out of 5); Number of Tubes Exhibiting Growth [2, 14]: 0 Tubes (Out of 5); Number of Tubes Exhibiting Growth [2, 15]: 0 Tubes (Out of 5); Number of Tubes Exhibiting Growth [2, 16]: 0 Tubes (Out of 5); biocidal efficacy (in words) (bacteria): approximately the same"
"CCNc1nc(Cl)nc(NC(C)(C)C)n1 [terbuthylazine, 2-(tert-butylamino)-4-chloro-6-(ethylamino)-s-triazine]",–,–,–,–,–,–,–,–,–,–,–,–,good hydrolytic stability,–,–,–,–,–,–,–,degradation half life ([1]; pH 5): 73 days; degradation half life ([1]; pH 9): 194 days; solubility in water ([4]; 25° C.): 11.5 ppm
